Experimental data from patent US4039540A, “3-Substituted quinoxaline-2-carboxamide-1,4-dioxides” (Pfizer Inc., priority 1975, dated 1977).
Converted amounts (≈) assume the structure as drawn. Like-named read-outs stand apart in the source and are kept apart here.

Tests used:
[1] = tested on: Strep. pyogenes; assay: in vivo activity in mice infected with a lethal inoculum of Strep. pyogenes; conditions: Streptococcus pyogenes, multiple dosing
Protocol: (§1) In determining the in vivo activity of the quinoxaline-1,4-dioxides of this invention, the test compound is administered to mice which have been infected by […] injection of a lethal inoculum of pathogenic bacteria. The test compound is administered using a multiple dosing regimen and using either the oral (PO) or the subcutaneous (SC) route. The inoculum of bacteria varies from about 1 to about 10 times the amount needed to kill 100% of the mice under the conditions of the test. At the end of the test, the activity of the compound is assessed by counting the number of survivors among the treated animals.
(§2) In vitro and in vivo activity of representative compounds of this invention, determined as aforesaid, are reported in the following tabulation for compounds of the formula: [drawing 12]

[2] = tested on: E. coli; assay: in vivo activity in mice infected with a lethal inoculum of E. coli; conditions: Escherichia coli, sc, subcutaneous, multiple dosing, read-out: IN VIVO E. coli, number of survivors among the treated animals
Protocol: as §1, §2

[3] = tested on: Strep. pyrogens; assay: in vitro antibacterial activity, two-fold serial dilution in Brain-Heart Infusion Broth (MIC); type: cell-based; conditions: overnight, anaerobic
Protocol: (§3) The broth is inoculated with bacteria and with the test quinoxaline-1,4-dioxide and then it is incubated overnight under anerobic conditions. On the next day, the test is read visually. The minimum inhibitory concentration (MIC) of test compound is the lowest concentration which prevents turbidity, i.e., which prevents growth of the microorganism.
as §2

[4] = tested on: E. coli; assay: as above; type: cell-based; conditions: Escherichia coli, overnight, anaerobic
Protocol: as §3, §2

[5] = oral, read-out: IN VIVO Strep. pyogenes, number of survivors among the treated animals, PO (data in parenthesis)
[6] = sc, subcutaneous, read-out: IN VIVO Strep. pyogenes, number of survivors among the treated animals

Compound | responders at 50 mg/kg [1, 5] [%] | responders at 50 mg/kg [1, 6] [%] | responders at 25 mg/kg [2] [%] | MIC [3] [µg/mL] | MIC [4] [µg/mL]
O=C(NCCO)c1c(CS(=O)(=O)CCCN2CCCCC2)[n+]([O-])c2ccccc2[n+]1[O-] [NHCH2 CH2 OH; drawing 22; H] | 20 | 100 | 20 | 50 (≈ 110 µM) | 25 (≈ 55.2 µM)
CNC(=O)c1c(CSCCO)[n+]([O-])c2ccccc2[n+]1[O-] [NHMe; SCH2 CH2 OH; H] | 60 | 100 | 100 | 0.781 (≈ 2.52 µM) | 0.781 (≈ 2.52 µM)
CCNC(=O)c1c(CS(=O)(=O)CCCN2CCCCC2)[n+]([O-])c2ccccc2[n+]1[O-] [NHCH2 CH3; drawing 26; H] | 90 | 100 | 60 | 3.12 (≈ 7.16 µM) | 12.5 (≈ 28.6 µM)
O=C(NCCCO)c1c(CS(=O)(=O)CCO)[n+]([O-])c2ccccc2[n+]1[O-] [NHCH2 CH2 CH2 OH; SO2 CH2 CH2 OH; H] | 50 | 40 | 0 | 12.5 (≈ 32.4 µM) | 100 (≈ 259 µM)
CCN(CC)CCCNC(=O)c1c(CS(=O)(=O)CCO)[n+]([O-])c2ccccc2[n+]1[O-] [NH(CH2)3 N(Et)2; SO2 CH2 CH2 OH; H] | – | 10 | 50 | 200 (≈ 454 µM) | > 200
NC(=O)c1c(CS(=O)(=O)CCCN2CCCCC2)[n+]([O-])c2ccccc2[n+]1[O-] [NH2; drawing 24; H] | 40 | 100 | 100 | 6.25 (≈ 15.3 µM) | 6.25 (≈ 15.3 µM)
O=C(NCCO)c1c(CSCCO)[n+]([O-])c2ccccc2[n+]1[O-] [NHCH2 CH2 OH; SCH2 CH2 OH; H] | 50 | 30 | 0 | 12.5 (≈ 36.8 µM) | 50 (≈ 147 µM)
CCCNC(=O)c1c(CSCCO)[n+]([O-])c2ccccc2[n+]1[O-] [NHPr; SCH2 CH2 OH; H] | 30 | 50 | 20 | 6.25 (≈ 18.5 µM) | 25 (≈ 74.1 µM)
CN(C)CCCS(=O)(=O)Cc1c(C(=O)NCCO)[n+]([O-])c2ccccc2[n+]1[O-] [NHCH2 CH2 OH; SO2 (CH2)3 N(CH3)2; H] | 0 | 60 | 0 | 50 (≈ 121 µM) | 50 (≈ 121 µM)
CCNC(=O)c1c(CS(=O)(=O)CCCN2CCOCC2)[n+]([O-])c2ccccc2[n+]1[O-] [NHCH2 CH3; drawing 17; H] | 80 | 100 | 60 | 12.5 (≈ 28.5 µM) | 25 (≈ 57 µM)
CN(C)CCCS(=O)(=O)Cc1c(C(N)=O)[n+]([O-])c2ccccc2[n+]1[O-] [NH2; SO2 (CH2)3 N(CH3)2; H] | 20 | 100 | 50 | 1.56 (≈ 4.24 µM) | 25 (≈ 67.9 µM)
CCNC(=O)c1c(CS(=O)(=O)CCCCN(C)C)[n+]([O-])c2ccccc2[n+]1[O-] [NHCH2 CH3; SO2 (CH2)4 N(CH3)2; H] | – | – | 20 | 12.5 (≈ 30.5 µM) | 50 (≈ 122 µM)
CCNC(=O)c1c(CSCCO)[n+]([O-])c2ccccc2[n+]1[O-] [NHCH2 CH3; SCH2 CH2 OH; H] | 20 | 20 | 40 | 3.12 (≈ 9.66 µM) | 6.25 (≈ 19.3 µM)
NC(=O)c1c(CS(=O)(=O)CCO)[n+]([O-])c2ccccc2[n+]1[O-] [NH2; SO2 CH2 CH2 OH; H] | 80 | 40 | 0 | 6.25 (≈ 19.1 µM) | 12.5 (≈ 38.2 µM)
CN(C)CCNC(=O)c1c(CS(=O)(=O)CCCN2CCCCC2)[n+]([O-])c2ccccc2[n+]1[O-] [NHCH2 CH2 N(CH3)2; drawing 21; H] | – | – | 40 | 50 (≈ 104 µM) | 100 (≈ 209 µM)
CN(C)C(=O)c1c(CS(=O)(=O)CCCN2CCCC2)[n+]([O-])c2ccccc2[n+]1[O-] [N(CH3)2; drawing 15; H] | – | – | 80 | 3.12 (≈ 7.4 µM) | 6.25 (≈ 14.8 µM)
CCNC(=O)c1c(CS(=O)(=O)CCCN2CCCC2)[n+]([O-])c2ccccc2[n+]1[O-] [NHCH2 CH3; drawing 16; H] | – | – | 60 | 12.5 (≈ 29.6 µM) | 50 (≈ 118 µM)
CNC(=O)c1c(CS(=O)(=O)CCCCN(C)C)[n+]([O-])c2ccccc2[n+]1[O-] [NHCH3; SO2 (CH2)4 N(CH3)2; H] | – | – | 40 | 50 (≈ 126 µM) | 50 (≈ 126 µM)
